Laboratory results: ChEMBL document CHEMBL5143704, “Discovery of 2,4-diarylaminopyrimidine derivatives bearing dithiocarbamate moiety as novel ALK inhibitors” (Bioorg Med Chem, 2022)

Columns and labels:
NCI-H2228 [1] = experiment: Induction of cell cycle arrest in human NCI-H2228 cells assessed as accumulation of cells at G1 phase at 1.8 uM incubated for 48 hrs propidium iodide staining based flow cytometric analysis (reference value: 59.82%); type: functional
NCI-H2228 [2] = experiment: cells; details: Homo sapiens, NCI-H2228, 96 h
Description: Antiproliferative activity against EML4-ALK positive human NCI-H2228 cells assessed as inhibition of cell growth incubated for 96 hrs by MTT assay

NCI-H2228 [3] = experiment: Induction of cell cycle arrest in human NCI-H2228 cells assessed as accumulation of cells at G2/M phase at 1.8 uM incubated for 48 hrs propidium iodide staining based flow cytometric analysis (reference value: 12.02%); type: functional
NCI-H2228 [4] = experiment: Induction of cell cycle arrest in human NCI-H2228 cells assessed as accumulation of cells at G2/M phase at 0.2 uM incubated for 48 hrs propidium iodide staining based flow cytometric analysis (reference value: 12.02%); type: functional
NCI-H2228 [5] = experiment: Induction of apoptosis in human NCI-H2228 cells assessed as late apoptotic cells at 0.2 uM incubated for 48 hrs by annexinV-FITC/propidium iodide staining based flow cytometry analysis (reference value: 2.40%); type: functional
NCI-H2228 [6] = experiment: Induction of apoptosis in human NCI-H2228 cells assessed as early apoptotic cells at 0.6 uM incubated for 48 hrs by annexinV-FITC/propidium iodide staining based flow cytometry analysis (reference value: 1.84%); type: functional
A549 = experiment: cells; details: Homo sapiens, A549, 96 h
Description: Antiproliferative activity against ALK-negative human A549 cells assessed as inhibition of cell growth incubated for 96 hrs by MTT assay

NCI-H2228 [7] = experiment: Induction of apoptosis in human NCI-H2228 cells assessed as late apoptotic cells at 0.6 uM incubated for 48 hrs by annexinV-FITC/propidium iodide staining based flow cytometry analysis (reference value: 2.40%); type: functional
NCI-H2228 [8] = experiment: Induction of cell cycle arrest in human NCI-H2228 cells assessed as accumulation of cells at G2/M phase at 0.6 uM incubated for 48 hrs propidium iodide staining based flow cytometric analysis (reference value: 12.02%); type: functional
NCI-H2228 [9] = experiment: Induction of apoptosis in human NCI-H2228 cells assessed as viable cells at 0.2 uM incubated for 48 hrs by annexinV-FITC/propidium iodide staining based flow cytometry analysis (reference value: 93.63%); type: functional; details: read-out: Activity
KARPAS-299 = experiment: cells; details: Homo sapiens, KARPAS-299, 96 h
Description: Antiproliferative activity against NPM-ALK positive human KARPAS-299 cells assessed as inhibition of cell growth incubated for 96 hrs by CCK-8 assay

NCI-H2228 [10] = experiment: Induction of apoptosis in human NCI-H2228 cells assessed as viable cells at 1.8 uM incubated for 48 hrs by annexinV-FITC/propidium iodide staining based flow cytometry analysis (reference value: 93.63%); type: functional; details: read-out: Activity
NCI-H2228 [11] = experiment: Induction of apoptosis in human NCI-H2228 cells assessed as necrotic at 0.6 uM incubated for 48 hrs by annexinV-FITC/propidium iodide staining based flow cytometry analysis (reference value: 2.12%); type: functional
NCI-H2228 [12] = experiment: Induction of cell cycle arrest in human NCI-H2228 cells assessed as accumulation of cells at G1 phase at 0.2 uM incubated for 48 hrs propidium iodide staining based flow cytometric analysis (reference value: 59.82%); type: functional
NCI-H2228 [13] = experiment: Induction of apoptosis in human NCI-H2228 cells assessed as early apoptotic cells at 0.2 uM incubated for 48 hrs by annexinV-FITC/propidium iodide staining based flow cytometry analysis (reference value: 1.84%); type: functional
NCI-H2228 [14] = experiment: Induction of cell cycle arrest in human NCI-H2228 cells assessed as accumulation of cells at S phase at 1.8 uM incubated for 48 hrs propidium iodide staining based flow cytometric analysis (reference value: 28.16%); type: functional
NCI-H2228 [15] = experiment: Induction of cell cycle arrest in human NCI-H2228 cells assessed as accumulation of cells at S phase at 0.2 uM incubated for 48 hrs propidium iodide staining based flow cytometric analysis (reference value: 28.16%); type: functional
NCI-H2228 [16] = experiment: Induction of apoptosis in human NCI-H2228 cells assessed as necrotic at 1.8 uM incubated for 48 hrs by annexinV-FITC/propidium iodide staining based flow cytometry analysis (reference value: 2.12%); type: functional
NCI-H2228 [17] = experiment: Induction of apoptosis in human NCI-H2228 cells assessed as viable cells at 0.6 uM incubated for 48 hrs by annexinV-FITC/propidium iodide staining based flow cytometry analysis (reference value: 93.63%); type: functional; details: read-out: Activity
NCI-H2228 [18] = experiment: Induction of apoptosis in human NCI-H2228 cells assessed as necrotic at 0.2 uM incubated for 48 hrs by annexinV-FITC/propidium iodide staining based flow cytometry analysis (reference value: 2.12%); type: functional
NCI-H2228 [19] = experiment: Induction of apoptosis in human NCI-H2228 cells assessed as late apoptotic cells at 1.8 uM incubated for 48 hrs by annexinV-FITC/propidium iodide staining based flow cytometry analysis (reference value: 2.40%); type: functional
NCI-H2228 [20] = experiment: Induction of apoptosis in human NCI-H2228 cells assessed as early apoptotic cells at 1.8 uM incubated for 48 hrs by annexinV-FITC/propidium iodide staining based flow cytometry analysis (reference value: 1.84%); type: functional
NCI-H2228 [21] = experiment: Induction of cell cycle arrest in human NCI-H2228 cells assessed as accumulation of cells at S phase at 0.6 uM incubated for 48 hrs propidium iodide staining based flow cytometric analysis (reference value: 28.16%); type: functional
NCI-H2228 [22] = experiment: Induction of cell cycle arrest in human NCI-H2228 cells assessed as accumulation of cells at G1 phase at 0.6 uM incubated for 48 hrs propidium iodide staining based flow cytometric analysis (reference value: 59.82%); type: functional
HCT-116 = experiment: cells; details: Homo sapiens, HCT-116, 96 h
Description: Antiproliferative activity against ALK-negative human HCT-116 cells assessed as inhibition of cell growth incubated for 96 hrs by MTT assay

IC50 (NCI-H2228 [2]): 70 nM | IC50 (A549): > 10000 nM | IC50 (KARPAS-299): 70 nM | IC50 (HCT-116): 5530 nM
SMILES: Cc1cc(Nc2ncc(Cl)c(Nc3ccccc3S(=O)(=O)C(C)C)n2)c(OC(C)C)cc1C1CCN(C(=O)SCC(=S)N2CCS(=O)(=O)CC2)CC1
Activity (NCI-H2228 [1]): 56.55% | Activity (NCI-H2228 [3]): 27.35% | Activity (NCI-H2228 [4]): 15.59% | Activity (NCI-H2228 [5]): 3.65% | Activity (NCI-H2228 [6]): 5.7% | Activity (NCI-H2228 [7]): 6.37% | Activity (NCI-H2228 [8]): 18.15% | viability at 0.2 µM (NCI-H2228 [9]): 89.8% | viability at 1.8 µM (NCI-H2228 [10]): 79.1% | Activity (NCI-H2228 [11]): 3.5% | Activity (NCI-H2228 [12]): 59.7% | Activity (NCI-H2228 [13]): 4.31% | Activity (NCI-H2228 [14]): 16.1% | Activity (NCI-H2228 [15]): 24.71% | Activity (NCI-H2228 [16]): 4.04% | viability at 0.6 µM (NCI-H2228 [17]): 84.4% | Activity (NCI-H2228 [18]): 2.24% | Activity (NCI-H2228 [19]): 8.06% | Activity (NCI-H2228 [20]): 8.84% | Activity (NCI-H2228 [21]): 22.74% | Activity (NCI-H2228 [22]): 59.11%
